In US12458538B2, “Functional wound healing dressings” (Ambient Biosciences, Inc., priority 2018, dated 2025):
“Also recorded” adds a separate entry of the source.

Columns and labels:
[1] = Activity of vitrified insulin after reconstitution; settings: reconstitution by contact with water or a body fluid
[2] = test system: C57/BL6J mouse keratinocytes; assay: Transwell migration assay; type: cell-based
Experimental: (§1) Two established cell culture models of transwell migration and a scratch wound healing model with freshly isolated C57/BL6J mouse keratinocytes were used. First, the keratinocyte cultures were established by enzymatic separation of keratinocytes from the epidermal layer of mouse skin using a dispase (for isolating epidermal later of skin) and trypsin (for isolating keratinocytes from the epidermis) under gentle agitation. The collected cells were grown in SFM-keratinocyte medium (Life Technologies).
To assess the ability of keratinocytes to migrate under the influence of VEGF, cells were trypsinized, collected by centrifugation and added to the upper chamber of transwell inserts while the No VEGF control or VEGF or VEGF+VEGF inhibitor were added to serum free medium placed in the lower chamber. The cells were allowed to migrate under normal growth conditions. At the end of 24 h, the cells that migrated under the influence of vehicle control or VEGF in lower chamber were counted visually and expressed as percent cell migration.

[3] = test system: C57/BL6J mouse keratinocytes; assay: Scratch wound healing assay; type: cell-based
Experimental: as §1
To assess the ability of keratinocytes to migrate and heal wound gaps, scratch wounds of uniform dimensions were created across keratinocyte monolayers and the cultures were left for healing in the presence or absence of VEGF or VEGF inhibitor.

[4] = test system: TNFα, COL1A1, DSTN, TGFβ, IL-6 and COL3A1 expression in dermal fibroblasts; assay: LPS-induced scar-forming gene expression assay of dermal fibroblasts (qPCR); type: cell-based; settings: LPS 500 ng/ml 3 days; VEGF 10 ng/ml; + control ideal storage, others exposed at 55° C. for 15 days
Experimental: Dermal fibroblasts were treated with lipopolysaccharide LPS (500 ng/ml) or vehicle PBS (No LPS control) for 3 days in the presence of vitrified VEGF (10 ng/ml) that was tested for stability against exposure to 55° C. from days 1-15.
LPS-treated cells exposed to VEGF (10 ng/ml) that underwent thermo-destabilization in the absence of vitrification served as negative control and the cells treated with VEGF that was subjected to neither vitrification nor destabilization served as positive control.
LPS-induced scar-forming gene expression profiles of dermal fibroblasts namely TNFα, COL1A1, DSTN, TGFβ, IL-6 and COL3A1 were measured by quantitative real-time PCR (qPCR), normalized to the expression of β-actin and expressed relative to the levels measured in No LPS control.

vitrified insulin: insulin vitrified by the processes described, e.g. electrospun with pullulan and trehalose
activity after reconstitution [1]: indistinguishable from fresh insulin

vascular endothelial growth factor [VEGF]
migration of keratinocytes, transwell ([2]; 24 h, serum free medium in lower chamber): stimulates migration of keratinocytes | quantification of cell numbers in the transwell migration assay ([2]; n=3): dramatic induction of keratinocyte migration | number of cells that migrated into the scratch wound area ([3]; n=3): dramatic induction of keratinocyte migration | keratinocyte scratch wound healing ([3]; scratch wounds on confluent keratinocyte monolayers): promote a dynamic healing in the scratch wound area; also recorded: stimulates migration of keratinocytes | LPS-induced scar-forming gene expression [4]: strong suppressive effect on scar forming genes
